This is an account of results in patent US6660494B2 (priority 2000, dated 2003).

Structures are written as SMILES. Entries after “also recorded” stand apart in the source; their conditions may differ. Where two headings read alike, the source gives them in different places.

The target of data set [1] is PC-PLC of Clostridium perfringens (Clostridium perfringens, UniProt P0C216). In kind it is biochemical.
In data set [2] the target is PC-PLC from Clostridium perfringens (Clostridium perfringens, UniProt P0C216). In kind it is biochemical.
Chain of PC-PLC from Clostridium perfringens (P0C216 29-398 limits assumed): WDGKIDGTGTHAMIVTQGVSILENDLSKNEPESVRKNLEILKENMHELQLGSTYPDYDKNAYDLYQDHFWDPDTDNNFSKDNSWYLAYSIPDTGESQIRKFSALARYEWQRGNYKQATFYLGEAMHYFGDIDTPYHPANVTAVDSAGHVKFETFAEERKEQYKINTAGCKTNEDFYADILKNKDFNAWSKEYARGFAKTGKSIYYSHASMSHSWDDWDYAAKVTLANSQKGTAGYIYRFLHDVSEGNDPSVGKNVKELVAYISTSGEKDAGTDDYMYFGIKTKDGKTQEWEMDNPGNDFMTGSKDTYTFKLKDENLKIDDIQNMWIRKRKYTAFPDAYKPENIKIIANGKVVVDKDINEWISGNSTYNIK
A short description of the next data set: solubility in water. In kind it is physicochemical.
Data set [3] in a line: stability on storage, in buffer solutions and in plating media. In kind it is physicochemical. As to conditions: for stability in conventional buffer solutions: citrate/hydrochloric acid, Hepes/NaOH, Tris/HCl, boric acid/potassium chloride-sodium hydroxide, pH about 4 to about 10, ambient temperature; for stability in conventional plating media: e.g. Tryptic Soy Agar; for storage stability: temperatures below about 5° C., protected from light.

Usually Vmax stands for the rate approached at saturating substrate. One may read the Km as the concentration of substrate that gives half-maximal velocity.

Chain of PC-PLC of Clostridium perfringens (P0C216 29-398 limits assumed): as above

For `C[N+](C)(C)CCOP(=O)([O-])Oc1c[nH]c2ccc(Br)c(Cl)c12` [X-CP, 5-bromo-4-chloro-3-indoxyl choline phosphate], in data set [1], the “additional effect on cleavage rate when these detergents/surfactants are combined with BSA” value is given as “no additional enhancement” and the “effect of detergent/surfactant additive on cleavage rate of the enzyme” value is listed as “slight enhancement”. Further, the “color of the solution” value in data set [1] (pH 7) is “Bluish; also recorded: Colorless; also recorded: Pale blue; also recorded: Light blue; also recorded: Colorless*”. Further, in data set [2], the Vmax is 93.6 nMol min^−1 (μg enzyme)^−1 and ≈ 94 μMol min^−1 (mg enzyme)^−1; the “Vmax (rate of cleavage under saturating conditions)” value was found to be 312 nmol/min; the “cleavage at 60° C. versus ambient temperature, times faster” value is given as “approximately 160”; the “factor of increase of enzymatic activity for every 10° C. of rise in temperature” value was 3-4. In addition, in data set [2] (22° C.), the Rate stood at 0.65 nmol/min and the “Specific Activity” value turned out to be 0.1 µmol/min/mg. In data set [2] (41° C.), the Rate turned out to be 8.1 nmol/min and the “Specific Activity” value stood at 1.2 µmol/min/mg. In data set [2] (46° C.), the Rate was found to be 19.7 nmol/min and the “Specific Activity” value came to 3.0 µmol/min/mg. Also, in data set [2] (51° C.), the Rate came out at 25.8 nmol/min and the “Specific Activity” value came to 3.9 µmol/min/mg. Further, in data set [2] (55° C.), the Rate is 48.5 nmol/min and the “Specific Activity” value came to 7.3 µmol/min/mg. For the same compound, in data set [2] (60° C.), the Rate came out at 106.8 nmol/min and the “Specific Activity” value turned out to be 16.0 µmol/min/mg. For the same compound, the Km in data set [2] (read-out: Km (Michaelis-Menten constant)) is about 42 mM. The solubility in water entry in the data set “solubility in water” is recorded as “freely soluble in water”. In data set [3], the “stability in conventional buffer solutions” value is given as “at least ten days”, the “stability in conventional plating media” value was “stable” and the storage stability result was “stable during extended periods of time”.
Turning to `C[N+](C)(C)CCOP(=O)([O-])Oc1c[nH]c2ccccc12` [Y-CP, 3-indoxylcholine phosphate], in the data set “solubility in water”, the solubility in water entry is reported as “freely soluble in water”. Besides, in data set [3], the “stability in conventional buffer solutions” value is reported as “at least ten days”, the “stability in conventional plating media” value is listed as “stable” and the storage stability entry is reported as “stable during extended periods of time”.
